Legend:
[1] = system: LOUCY (T-Lymphoblastic Leukemia); experiment: Bliss excess, mean over the matrix (fraction); higher = more synergy
Outline: (§1)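 Bliss excess equals the observed combination effect minus the expected value EA + EB − EA·EB, where EA and EB are the effects of each agent alone. Combination Emax is the second-highest inhibition within the matrix. Inhibition was scaled from CellTiter-Glo 2.0 luminescence, with 0 set by vehicle wells and 1 by blank wells, after 72 hours of two-drug dosing of cells plated in 1536-well plates.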

[2] = system: SK-MM-2 (Plasma Cell Myeloma); experiment: as above
Outline: as §1

[3] = system: NKM-1 (Acute Myeloid Leukemia); experiment: as above
Outline: as §1

[4] = system: NCI-H810 (Non-Small Cell Lung Carcinoma); experiment: as above
Outline: as §1

[5] = system: KYSE-70 (Esophageal Squamous Cell Carcinoma); experiment: as above
Outline: as §1

CHL-1 (Melanoma) [6] = experiment: as above
Outline: as §1

[7] = system: PANC-02-03 (Pancreatic Carcinoma); experiment: as above
Outline: as §1

[8] = system: LAMA-84 (Chronic Myelogenous Leukemia); experiment: as above
Outline: as §1

[9] = system: HCC-44 (Lung Adenocarcinoma); experiment: as above
Outline: as §1

[10] = system: CML-T1 (Chronic Myelogenous Leukemia); experiment: as above
Outline: as §1

[11] = system: PC-14 (Lung Adenocarcinoma); experiment: as above
Outline: as §1

[12] = system: EB-3 (Burkitt's Lymphoma); experiment: as above
Outline: as §1

[13] = system: COLO-684 (Endometrial Carcinoma); experiment: as above
Outline: as §1

[14] = system: RMG-I (Ovarian Carcinoma); experiment: as above
Outline: as §1

KYM-1 (Rhabdomyosarcoma) [15] = experiment: as above
Outline: as §1

[16] = system: Becker (Low Grade Glioma); experiment: as above
Outline: as §1

[17] = system: NCI-H1755 (Lung Adenocarcinoma); experiment: as above
Outline: as §1

[18] = system: SW684 (Other Solid Carcinomas); experiment: as above
Outline: as §1

[19] = system: OV-90 (Ovarian Carcinoma); experiment: as above
Outline: as §1

[20] = system: FLO-1 (Esophageal Adenocarcinoma); experiment: as above
Outline: as §1

[21] = system: LOUCY (T-Lymphoblastic Leukemia); experiment: combination Emax (second highest fraction inhibited in the dose matrix, 72 h); higher = more inhibition; extreme values may be limits of the assay
Outline: as §1

[22] = system: SK-MM-2 (Plasma Cell Myeloma); experiment: as above
Outline: as §1

[23] = system: NKM-1 (Acute Myeloid Leukemia); experiment: as above
Outline: as §1

[24] = system: NCI-H810 (Non-Small Cell Lung Carcinoma); experiment: as above
Outline: as §1

[25] = system: KYSE-70 (Esophageal Squamous Cell Carcinoma); experiment: as above
Outline: as §1

CHL-1 (Melanoma) [26] = experiment: as above
Outline: as §1

[27] = system: PANC-02-03 (Pancreatic Carcinoma); experiment: as above
Outline: as §1

[28] = system: LAMA-84 (Chronic Myelogenous Leukemia); experiment: as above
Outline: as §1

[29] = system: HCC-44 (Lung Adenocarcinoma); experiment: as above
Outline: as §1

[30] = system: CML-T1 (Chronic Myelogenous Leukemia); experiment: as above
Outline: as §1

[31] = system: PC-14 (Lung Adenocarcinoma); experiment: as above
Outline: as §1

[32] = system: EB-3 (Burkitt's Lymphoma); experiment: as above
Outline: as §1

[33] = system: COLO-684 (Endometrial Carcinoma); experiment: as above
Outline: as §1

[34] = system: RMG-I (Ovarian Carcinoma); experiment: as above
Outline: as §1

KYM-1 (Rhabdomyosarcoma) [35] = experiment: as above
Outline: as §1

[36] = system: Becker (Low Grade Glioma); experiment: as above
Outline: as §1

[37] = system: NCI-H1755 (Lung Adenocarcinoma); experiment: as above
Outline: as §1

[38] = system: SW684 (Other Solid Carcinomas); experiment: as above
Outline: as §1

[39] = system: OV-90 (Ovarian Carcinoma); experiment: as above
Outline: as §1

[40] = system: FLO-1 (Esophageal Adenocarcinoma); experiment: as above
Outline: as §1

SMILES | Bliss excess [1] | Bliss excess [2] | Bliss excess [3] | Bliss excess [4] | Bliss excess [5] | Bliss excess (CHL-1 (Melanoma) [6]) | Bliss excess [7] | Bliss excess [8] | Bliss excess [9] | Bliss excess [10] | Bliss excess [11] | Bliss excess [12] | Bliss excess [13] | Bliss excess [14] | Bliss excess (KYM-1 (Rhabdomyosarcoma) [15]) | Bliss excess [16] | Bliss excess [17] | Bliss excess [18] | Bliss excess [19] | Bliss excess [20] | combination Emax [21] | combination Emax [22] | combination Emax [23] | combination Emax [24] | combination Emax [25] | combination Emax (CHL-1 (Melanoma) [26]) | combination Emax [27] | combination Emax [28] | combination Emax [29] | combination Emax [30] | combination Emax [31] | combination Emax [32] | combination Emax [33] | combination Emax [34] | combination Emax (KYM-1 (Rhabdomyosarcoma) [35]) | combination Emax [36] | combination Emax [37] | combination Emax [38] | combination Emax [39] | combination Emax [40]
Cc1c2c(nn1C)CSCc1cc(n(C)n1)CSc1cc(c3ccccc3c1)OCCCc1c(C(=O)O)n(C)c3c-2c(Cl)ccc13 [AZD5991] + CC(=O)O[C@H]1C(=O)[C@@]2(C)[C@H]([C@H](OC(=O)c3ccccc3)[C@]3(O)C[C@H](OC(=O)[C@H](O)[C@@H](NC(=O)c4ccccc4)c4ccccc4)C(C)=C1C3(C)C)[C@]1(OC(C)=O)CO[C@@H]1C[C@@H]2O [Paclitaxel] (first compound max 1 µM, 7x7, partner max 3 µM) | -0.051 | 0.0033 | 0.0294 | 0.125 | 0.0855 | 0.0482 | -0.0131 | -0.0161 | -0.0764 | -0.0139 | -0.0298 | -0.0558 | 0.0057 | -0.0514 | 0.0663 | 0.0068 | -0.0385 | -0.0818 | 0.0575 | -0.0172 | 0.898 | 0.34 | 1 | 0.871 | 0.534 | 1 | 0.427 | 0.895 | 0.83 | 0.954 | 0.947 | 0.685 | 0.558 | 0.322 | 1 | 0.982 | 0.734 | 0.52 | 0.379 | 0.928
Cc1c2c(nn1C)CSCc1cc(n(C)n1)CSc1cc(c3ccccc3c1)OCCCc1c(C(=O)O)n(C)c3c-2c(Cl)ccc13 [AZD5991] + CS(=O)(=O)CCNCc1ccc(-c2ccc3ncnc(Nc4ccc(OCc5cccc(F)c5)c(Cl)c4)c3c2)o1 [Lapatinib] (first compound max 1 µM, 7x7, partner max 10 µM) | 0.0351 | -0.0011 | -0.0148 | -0.0722 | -0.0329 | 0.0766 | -0.0159 | 0.0258 | -0.0301 | 0.0228 | 0.0203 | -0.0068 | -0.114 | 0.0088 | 0.0243 | -0.0011 | -0.015 | -0.116 | -0.0817 | -0.0454 | 0.688 | 0.115 | 0.995 | 0.261 | 0.177 | 0.835 | 0.368 | 0.165 | 0.352 | 0.24 | 0.963 | 0.6 | 0.421 | 0.532 | 0.589 | 0.277 | 0.755 | 0.177 | 0.247 | 0.537
Cc1c2c(nn1C)CSCc1cc(n(C)n1)CSc1cc(c3ccccc3c1)OCCCc1c(C(=O)O)n(C)c3c-2c(Cl)ccc13 [AZD5991] + Nc1ccn([C@@H]2O[C@H](CO)[C@@H](O)C2(F)F)c(=O)n1 [Gemcitabine] (first compound max 1 µM, 7x7, partner max 0.3 µM) | 0.131 | -0.0172 | -0.0275 | 0.0467 | -0.0423 | 0.0685 | -0.053 | 0.0095 | -0.0513 | -0.0219 | 0.0171 | 0.0273 | -0.0376 | -0.0592 | 0.0209 | -0.033 | 0.0224 | -0.0767 | -0.0251 | -0.0134 | 0.774 | 0.351 | 1 | 0.597 | 0.141 | 0.785 | 0.366 | 0.939 | 0.598 | 0.991 | 0.692 | 0.377 | 0.573 | 0.367 | 1 | 0.567 | 0.435 | 0.253 | 0.505 | 0.823
C[C@@H]1COCCN1c1cc(C2([S@](C)(=N)=O)CC2)nc(-c2ccnc3[nH]ccc23)n1 [AZD6738] + Nc1ccn([C@@H]2O[C@H](CO)[C@@H](O)C2(F)F)c(=O)n1 [Gemcitabine] (first compound max 10 µM, 7x7, partner max 0.3 µM) | 0.0579 | 0.114 | -0.0345 | 0.0805 | -0.0006 | 0.0858 | -0.0067 | 0.0674 | 0.0963 | 0.0987 | 0.0058 | 0.007 | -0.0731 | -0.0514 | 0.0132 | 0.0762 | 0.0444 | 0.0693 | -0.0129 | 0.124 | 1 | 0.572 | 1 | 0.794 | 0.504 | 0.902 | 0.579 | 0.976 | 0.844 | 1 | 0.869 | 0.847 | 0.733 | 0.48 | 1 | 0.808 | 0.812 | 0.559 | 0.573 | 0.949
Cc1cc2ncnn2cc1Nc1ncc2c(n1)n(C1CCOCC1)c(=O)n2C [AZD7648] + COc1cc([C@@H]2c3cc4c(cc3[C@@H](O[C@@H]3O[C@@H]5CO[C@@H](C)O[C@H]5[C@H](O)[C@H]3O)[C@H]3COC(=O)[C@H]23)OCO4)cc(OC)c1O [Etoposide] (first compound max 10 µM, 7x7, partner max 10 µM) | 0.0421 | 0.0378 | 0.106 | -0.079 | -0.0437 | 0.0767 | 0.0386 | 0.154 | 0.0009 | 0.0779 | 0.097 | 0.0374 | -0.0174 | 0.01 | 0.119 | 0.096 | 0.0418 | -0.0208 | -0.0525 | 0.0863 | 0.968 | 0.437 | 0.976 | 0.598 | 0.168 | 0.82 | 0.378 | 0.948 | 0.809 | 1 | 0.757 | 0.942 | 0.497 | 0.386 | 0.927 | 0.748 | 0.486 | 0.428 | 0.399 | 0.85
C[C@@H](Nc1cc(F)cc(F)c1)c1cc(C(=O)N(C)C)cc2c(=O)cc(N3CCOCC3)oc12 [AZD8186] + C1CN(CCC1(C(=O)N[C@@H](CCO)C2=CC=C(C=C2)Cl)N)C3=NC=NC4=C3C=CN4 [AZD5363] (first compound max 10 µM, 7x7, partner max 10 µM) | 0.0819 | -0.0255 | -0.0454 | -0.099 | -0.0493 | -0.0392 | -0.0364 | -0.0192 | -0.0319 | -0.0629 | 0.0006 | -0.0203 | -0.0839 | -0.0317 | -0.0245 | 0.0295 | -0.0436 | -0.0408 | -0.0556 | -0.0114 | 0.494 | 0.202 | 0.615 | 0.17 | 0.233 | 0.433 | 0.237 | 0.198 | 0.609 | 0.53 | 0.399 | 0.324 | 0.615 | 0.401 | 0.4 | 0.646 | 0.642 | 0.572 | 0.208 | 0.43
